Holding throughout (type): in vivo, rat
In assay [1] the test system is CPIP rats. The assay can be described thus: Mechanical allodynia (von Frey paw withdrawal threshold) after topical ointment in CPIP rats (model of CRPS-I). Particulars: for effectiveness of the agent when administered topically in the combinations: apraclonidine 0.005%, clonidine 0.0075%, lisofylline 0.0078%-0.075%, pentoxifylline 0.3 or 0.6%, linsidomine 0.4%; for anti-allodynic effect (PWT to von Frey hair stimulation): single drug. Here is the method: Ointment type analgesic formulations containing the above-mentioned drugs were prepared according to standard pharmaceutical procedures. The ointments were formulated using a composite, water-soluble polyethylene glycol base system employing carbowax (PEG 3350) and PEG 400 in the ratio of 60:40 respectively. The water-soluble base system was selected due to its non-sticky nature. Briefly, the required amounts of the active ingredients were first weighed out and then added to the already molten base in decreasing order of their melting points, and stirred well. After uniform melting, the formulation was brought to room temperature to ensure proper solidification. A standard amount of 150 mg (mean±SEM=150.88+2.7 mg) of the ointment was used for all rat hind paw applications throughout the experimental procedure, and half this amount for mouse hind paw application.
(§1) Chronic post-ischemia pain (CPIP) was generated following exposure to prolonged hind paw ischemia and reperfusion (Coderre et al., Pain, 112(1):94-105, 2004). Briefly, rats were anesthetized over a 3 h period with a bolus (55 mg/kg, i.p.) followed by chronic i.p. infusion of sodium pentobarbital for 2 h at a rate of 0.15 mL/h. After induction of anesthesia, a Nitrile 70 Durometer O-ring (O-rings West, Seattle, Wash.) with 5.5 mm internal diameter was placed around the rat's left hind limb proximal to the ankle joint. The tight-fitting O-rings produce a complete blockade of arterial blood flow as measured using laser Doppler flowmetry. The ring was then left in place for 3 h. The termination of sodium pentobarbital anesthesia was timed so that the rats recovered fully within 30-60 min following reperfusion. Rats were tested between 2 and 14 days post-IR injury.
(§2) The plantar surface of the ipsilateral hind paw was tested for mechanical allodynia in CPIP and CCI rats. Nylon monofilaments were applied in either ascending (after negative response) or descending (after positive response) force as necessary to determine the filament closest to the threshold of response. Each filament was applied for 10 s or until a flexion reflex occurred. The minimum stimulus intensity was 1 g and the maximum was 15 g. Based on the response pattern, and the force of the final filament (5th stimulus after first direction change), the 50% threshold (grams) was calculated as (10[Xf+kδ])/10000 where Xf=filament number of the final von Frey hair used, k=value for the pattern of positive/negative responses and δ=mean difference in log unit between stimuli (here, δ=0.220, for more details see Chaplan et al., J. Neurosci. Methods, 53(1):55-63, 1994). Mechanical sensitivities were assessed prior to and following several pharmacological treatments.
The topical formulations containing a nitric oxide donor, an α2-adrenergic agonist or a phosphatidic acid inhibitor were tested for their anti-allodynic effects either singly or in combination with each other in definite proportions at concentrations for single agents selected from the published literature in different animal models of pain. Accordingly, the rats received 150 mg of the respective ointment with the first half on the plantar aspect of their hind paws followed by the second half applied on the dorsal surface; in both cases by uniform gentle application using fingers.
In separate groups of rats, formulations containing pentoxifylline or lisofylline were tested in specific drug combinations with constant percentage amounts of clonidine, linsidomine, SNAP or apraclonidine. […] Accordingly, the formulations tested in the combination trials included clonidine (0.0075% W/W) with pentoxifylline (0.3, 0.6 and 1.2% WAN), linsidomine (0.4% W/W) with pentoxifylline (0.075, 0.15 and 0.3% W/W), linsidomine (0.4% W/W) with lisofylline (0.03175, 0.0625 and 0.075% W/W), SNAP (0.0625% W/W) with lisofylline (0.008, 0.015, 0.033 and 0.063% W/W) and apraclonidine (0.005% W/W) with lisofylline (0.0078, 0.0156 and 0.0313% W/W). […]

The test system of assay [2] is CPIP rats. The assay is described as follows: Mechanical allodynia (von Frey PWT) in CPIP rats after systemic pentoxifylline. Particulars: vs vehicle. The method, then:
as §1, with “The termination of sodium pentobarbital anesthesia was timed so that the rats recovered fully within 30-60 min following reperfusion. Rats were tested between 2 and 14 days post-IR injury.” left out
as §2, with “Nylon monofilaments were applied in either ascending (after negative response) or descending (after positive response) force as necessary to determine the filament closest to the threshold of response. Each filament was applied for 10 s or until a flexion reflex occurred. The minimum stimulus intensity was 1 g and the maximum was 15 g.” left out

Assay [3] deals with CPIP rats. The assay is described as follows: Laser Doppler post-occlusive reactive hyperemia in CPIP rats, systemic pentoxifylline. Particulars: 25 mg/kg i.p. The method, then: as §1, with “The termination of sodium pentobarbital anesthesia was timed so that the rats recovered fully within 30-60 min following reperfusion. Rats were tested between 2 and 14 days post-IR injury.” left out
Plantar blood flow and post-occlusive reactive hyperemia were measured using a laser Doppler perfusion and temperature monitor (DRT4, Moor Instruments, Wilmington, Del.) to assess microvascular function (Morales et al., Microvasc. Res., 69(1-2):17-23, 2005). […] Body temperature was monitored through a rectal thermometer coupled to a heating pad (FHC, Bowdoinham, Me.), and was maintained between 37.5° C. and 39.0° C. throughout the experiment. The plantar blood flow of the ipsilateral hind paw was monitored using a laser-emitting probe placed in between the tori pads of the hind paw, along the midline. […]

The test system of the next assay is sham rats. The assay is described as follows: Laser Doppler post-occlusive reactive hyperemia in sham rats, systemic pentoxifylline. The conditions noted are these: 25 mg/kg i.p. Here is the method:
Plantar blood flow and post-occlusive reactive hyperemia were measured using a laser Doppler perfusion and temperature monitor (DRT4, Moor Instruments, Wilmington, Del.) to assess microvascular function (Morales et al., Microvasc. Res., 69(1-2):17-23, 2005). Briefly, rats (n=6 for each group) were anesthetized with bolus (1 g/kg) and maintenance doses (200 mg/kg prn) of urethane, and placed in the prone position. Body temperature was monitored through a rectal thermometer coupled to a heating pad (FHC, Bowdoinham, Me.), and was maintained between 37.5° C. and 39.0° C. throughout the experiment. The plantar blood flow of the ipsilateral hind paw was monitored using a laser-emitting probe placed in between the tori pads of the hind paw, along the midline. […] At the rate of one sample per second, an initial 10 minute baseline blood flux was recorded, followed by a 2 minute occlusion induced by pressurizing and inflating a tight fitting loop of Tygon® R 3603 tubing (outside diameter=2.38 mm, inside diameter=0.79 mm, wall thickness=0.79 mm) connected to an air-filled pump-driven 60 mL syringe (Model 11, Harvard Apparatus, Montreal, QC), creating a tourniquet around the ankle joint. […] Post-occlusive reactive hyperemia was monitored by continuously sampling flux at the rate of 1/sec for 2 min following the onset of reperfusion. […]

`C[C@@H](O)CCCCn1c(=O)c2c(ncn2C)n(C)c1=O` [lisofylline]: in the assay on CPIP rats [1], the “effectiveness of the agent when administered topically in the combinations” value (“effectiveness of the agent” for short) is given as “highly effective”. Further, the “anti-allodynic effect (PWT to von Frey hair stimulation)” value (“anti-allodynic effect” for short) was “inactive” in the assay with CPIP rats [1] (topical ipsilateral, lowest concentration 0.063% W/W); “only the lowest concentration (0.063% W/W) was observed to be inactive” in the assay on CPIP rats [1] (topical ipsilateral, the three higher concentrations (0.09, 0.125 and 0.25% W/W)).
Take `CC(=O)N[C@H](C(=O)O)C(C)(C)SN=O` [SNAP, S-nitroso-N-acetyl-penicillamine]: the “anti-allodynic effect” value in the assay on CPIP rats [1] (topical ipsilateral, 0.0625% W/W (lowest)) is “inactive”; in the assay on CPIP rats [1] (topical ipsilateral, all concentrations except the lowest (0.125, 0.25 and 0.5% W/W)) it was “significant effects”.
Turning to `[NH-]c1c[n+](N2CCOCC2)no1` [linsidomine], the “effectiveness of the agent” value in the assay with CPIP rats [1] is recorded as “highly effective”. Further, the “anti-allodynic effect” value was “inactive” in the assay with CPIP rats [1] (topical ipsilateral, 0.4% W/W); “significantly different from their pre-drug values” in the assay with CPIP rats [1] (topical ipsilateral, 0.8% W/W, post drug vs pre-drug); “significantly different from their pre-drug values” in the assay on CPIP rats [1] (topical ipsilateral, 1.6% W/W, post drug vs pre-drug).
As to `Nc1cc(Cl)c(N=C2NCCN2)c(Cl)c1` [apraclonidine], in the assay on CPIP rats [1], the “effectiveness of the agent” value is recorded as “highly effective”. Besides, the “anti-allodynic effect” value was “inactive” with CPIP rats [1] (topical ipsilateral, 0.005% W/W (lowest)); “effective against mechanical allodynia” with CPIP rats [1] (topical ipsilateral, all concentrations except the lowest (0.01, 0.02 and 0.04% W/W)).
`CC(=O)CCCCn1c(=O)c2c(ncn2C)n(C)c1=O` [pentoxifylline]: the “allodynia (PWT to von Frey hair stimulation)” value in the assay with CPIP rats [2] (25 mg/kg) and in the assay on CPIP rats [2] (50 mg/kg) was “attenuated allodynia” in each case. Moreover, in the assay on CPIP rats [3], the “effect on delayed post-occlusive reactive hyperemia (microvascular dysfunction)” value is “reversed”. For the same compound, in the assay with CPIP rats [1], the “effectiveness of the agent” value was “highly effective”. Moreover, the “anti-allodynic effect” value is listed as “significantly attenuated mechanical allodynia” in the assay with CPIP rats [1] (topical ipsilateral hind paw, 5% W/W, 45 min post-application); “devoid of any effect” in the assay with CPIP rats [1] (topical ipsilateral, 0.6% W/W); “devoid of any effect” with CPIP rats [1] (topical ipsilateral, 1.2% W/W). Besides, the “effect on normal post-occlusive reactive hyperemia” value in the assay with sham rats is given as “no effect”.
On to `Clc1cccc(Cl)c1N=C1NCCN1` [clonidine], for which, in the assay with CPIP rats [1], the “effectiveness of the agent” value is listed as “highly effective”. Further, the “anti-allodynic effect” value in the assay on CPIP rats [1] (topical ipsilateral, 0.0075% W/W) was “inactive”; in the assay on CPIP rats [1] (topical ipsilateral, 0.03% W/W) it was “significant anti-allodynic effects”; with CPIP rats [1] (topical ipsilateral, 0.06% W/W), “significant anti-allodynic effects”.

The values above are taken from patent US20130029989A1, “TOPICAL TREATMENTS FOR PAIN” (The Royal Institution for the Advancement of …, priority 2010, published 2013).
